# Results as given in US20150374734A1, “ACTIVATION OF iNKT CELLS” (INSERM (INSTITUT NATIONAL DE LA SANTÉ ET DE LA RECHERCHE …, priority 2013, published 2015).
# Key:
# [1] = tested on: sorted hepatic NKT cells; experiment: Ex vivo stimulatory capacity of in vivo α-GalCer-loaded DC subsets on NKT cells; type: cell-based, mouse; details: DCs sorted 2 h after i.v. α-GalCer 2 μg; 48 h co-culture
# Experimental: (§1) FIG. 2: CD8α^+ and CD8α^− DCs differ in their ability to activate iNKT cells. A, B and C, Mice were intravenously injected with α-GalCer (2 μg). Two hours later, splenic CD8α^+ and CD8α^− DCs were sorted on the basis of CD11c, CD11b and CD8 expression (A) and co-cultured with sorted NKT cells (B) or with the α-GalCer-responsive IL-2-producing iNKT cell hybridoma DN32.D3 as a readout of Ag presentation (C). B and C, Cytokine production was quantified by ELISA. Results represent the mean±SD of four experiments. D, CD1d expression on CD8α^+ and CD8α^− DCs was assessed by flow cytometry. The staining with the isotype control was identical on both DC subsets. […] E, Recipient mice were intravenously injected with Cy5-conjugated, or unconjugated as a control, α-GalCer (20 μg) and Cy5 incorporation by CD8α^+ DCs (grey) and CD8α^− DCs (black) was analyzed by flow cytometry 2 h later. […]
# (§2) To assess the capacity of DCs to bind/uptake PLGA-based NPs, bone marrow-derived DCs (BM-DCs) (5×10^5 cells/well)^32 or spleen mononuclear cells (MNCs) (1×10^6 cells/well) were exposed with AlexaFluor647-labelled particles (10 μg/ml and 100 μg/ml, respectively) during 2 h at 37° C. After extensive washes, BM-DC (CD11c^+ DEC205^+/−) and spleen CD8α^+ and CD8α^− DCs were analysed by flow cytometry. […] Production of IFN-γ, IL-4 and IL-2 was measured in the culture supernatants by ELISA (R&D systems).
# [2] = tested on: iNKT cell hybridoma DN32.D3; experiment: Ex vivo stimulatory capacity of in vivo α-GalCer-loaded DC subsets on DN32.D3; type: cell-based, mouse; details: DCs sorted 2 h after i.v. α-GalCer 2 μg; 24 h co-culture
# Experimental: as §1, §2
# [3] = tested on: splenic iNKT cells; experiment: iNKT cell recall response / anergy in vivo; parameters: species or system mouse
# Experimental: (§3) FIG. 1: DCs are crucial for iNKT cell primo-activation and for the prevention of iNKT cell anergy. (A) Transgenic CD11c.DTR mice were injected with PBS or DT 24 h before α-GalCer inoculation (100 ng/mouse). (B) Spleen DCs were sorted on the basis of CD11c expression and sensitized for 2 h with α-GalCer (25 ng/ml). Mice were then injected with α-GalCer-sensitized DCs or free α-GalCer (100 ng/mouse). A and B, Mice were euthanized 3 h after α-GalCer (A and B) or DC/α-GalCer (B) inoculation (primo-activation, grey) or received a second intravenous injection of α-GalCer (100 ng/mouse) 7 days later (recall response, black). In these later groups, animals were sacrificed 3 h after α-GalCer challenge. Splenic iNKT cells were then analysed for intracellular IFN-γ production. A representative experiment out of two (A) or three (B) is shown (mean±SD) (n=4). ** p<0.01, * p<0.05 (unpaired Student's t test).
# FIG. 5: Targeting α-GalCer into CD8α^+ DCs prevents iNKT cell anergy in vivo. Mice were intravenously injected with PBS, free α-GalCer (100 ng/mouse) or α-GalCer encapsulated into NP/DEC205 or NP/IgG (5 ng/mouse). A, After 3 h, mice were bled and splenic iNKT cells were screened for intracellular IFN-γ production. The average percentages±SD of iNKT cells positive for IFN-γ are represented (left panel). Production of IL-4 in the sera was quantified by ELISA (right panel). B, Mice received, 7 days later, a second injection of free α-GalCer ([…]) and spleen iNKT cells were screened for intracellular IFN-γ production 3 h later. […] A representative experiment out of two is shown (mean±SD) (n=3) C, The percentage±SD of iNKT cells expressing PD-1 is represented (7 days after α-GalCer stimulation). A representative experiment out of two is shown (n=4). ** p<0.01, * p<0.05 (unpaired Student's t test).
# Mice were administrated intravenously with 200 μl of PBS containing 5 ng of free (or 100 ng as a control) or encapsulated α-GalCer. […] Splenic iNKT cells were analysed for intracellular IFN-γ expression and IFN-γ and IL-4 concentrations in the sera were determined by ELISA.
# [4] = tested on: splenic iNKT cells; experiment: Primary iNKT cell activation in vivo (intracellular IFN-γ, serum IL-4); parameters: species or system mouse
# Experimental: as §3
# FIG. 4: Encapsulation of α-GalCer in NP/DEC205 efficiently activates iNKT cells in vivo. Mice were intravenously injected with PBS alone or α-GalCer either in a free soluble form or encapsulated into NP/DEC205 or NP/IgG (5 ng α-GalCer/mouse). […] Production of IL-4 in the sera was quantified by ELISA (right panel) (n=3-8). […] The expression of CD86 (expressed as MFI) by DCs (CD11c^hi) is depicted. […]
# FIG. 5: Targeting α-GalCer into CD8α^+ DCs prevents iNKT cell anergy in vivo. […] Production of IL-4 in the sera was quantified by ELISA (right panel). […]
# Cells were resuspended in the appropriate combination of Abs to allow identification of DC subsets (anti-CD11c, anti-CD8α, anti-CD11b), iNKT cells (anti-TCRβ, PBS-57-loaded CD1d tetramer), NK cells (anti-CD3ε, anti-NK1.1) or γδ T lymphocytes (anti-TCRγδ, anti-CD3ε). […] Expression of intracellular IFN-γ was analysed as previously described.^32 To measure Cy5-α-GalCer incorporation by splenic DC subsets, mice were intravenously injected with Cy5-conjugated α-GalCer (20 μg) and 2 h later, incorporation of Cy5 by spleen DC subsets was analysed by flow cytometry. […]
compound,measurement,setting,value
"CCCCCCCCCCCCCCCCCCCCCCCCCC(=O)N[C@@H](CO[C@H]1O[C@H](CO)[C@H](O)[C@H](O)[C@H]1O)[C@H](O)[C@H](O)CCCCCCCCCCCCCC [α-GalCer, (2S,3S,4R)-1-O-(alpha-D-galactosyl)-N-hexacosanoyl-2-amino-1,3,4-octadecanetriol]",Secretion of IFN-γ and IL-4 by NKT cells co-cultured with DC subsets,[1],CD8α^+ DCs promoted a much stronger secretion of IFN-γ and IL-4
same,IL-2 production by DN32.D3 co-cultured with DC subsets,[2],CD8α^+ DCs triggered a higher IL-2 production by the iNKT cell hybridoma DN32.D3
same,PD-1 expression on iNKT cells,"[3]; 7 days after α-GalCer stimulation, listed as free α-GalCer",induced enhanced PD-1 expression on iNKT cells
same,Recall response when DCs lacking at primary stimulation,"[3]; CD11c.DTR mice treated with DT, α-GalCer 100 ng/mouse, rechallenge day 7",totally blunted
same,iNKT cell anergy (IFN-γ recall response),"[3]; second injection of free α-GalCer 100 ng 7 days later, 3 h",induced the expected iNKT cell anergy
same,Primary iNKT cell activation after DC depletion,"[4]; CD11c.DTR mice, DT 24 h before, α-GalCer 100 ng/mouse",strongly lowered the extent of primary iNKT cell activation
same,"Primary iNKT cell activation, low dose in NP/DEC205 vs high dose free","[4]; NP/DEC205 5 ng/mouse, free α-GalCer 100 ng/mouse, 3 h",comparable primary iNKT cell activation
same,"Primary iNKT cell activation, free α-GalCer vs α-GalCer-sensitized DCs","[4]; free 100 ng/mouse, DCs sensitized 2 h with 25 ng/ml, 3 h",triggered a similar primary activation of iNKT cells
